ChEMBL document CHEMBL1201862, “PubChem BioAssay data set” (2004)
The source made the active and inactive calls.

Columns and labels:
[1] = Counterscreen for IDE inhibitors: Luminescence-based cell-based high throughput dose response assay to identify compounds that are cytotoxic to HEK cells. [Related pubchem assays: 434962 (Primary screen (IDE inhibitors in singlicate)), 449730 (Counterscreen (Cytotoxicity in triplicate)), 435028 (Confirmation (IDE inhibitors in triplicate)) …; assay type: functional; conditions: HEK293
Insulin-degrading enzyme = molecular target: T1, Insulin-degrading enzyme (Homo sapiens, UniProt P14735); assay: Dose Response: Fluorescence polarization-based cell-based high throughput dose response assay for inhibitors of insulin-degrading enzyme (IDE). [Related pubchem assays: 434962 (Primary screen (IDE inhibitors in singlicate)), 449730 (Counterscreen (Cytotoxicity in triplicate)), 435028 (Confirmation (IDE inhibitors in triplicate)), 434984 (Summary …; assay type: functional
T1 sequence (P14735 whole entry): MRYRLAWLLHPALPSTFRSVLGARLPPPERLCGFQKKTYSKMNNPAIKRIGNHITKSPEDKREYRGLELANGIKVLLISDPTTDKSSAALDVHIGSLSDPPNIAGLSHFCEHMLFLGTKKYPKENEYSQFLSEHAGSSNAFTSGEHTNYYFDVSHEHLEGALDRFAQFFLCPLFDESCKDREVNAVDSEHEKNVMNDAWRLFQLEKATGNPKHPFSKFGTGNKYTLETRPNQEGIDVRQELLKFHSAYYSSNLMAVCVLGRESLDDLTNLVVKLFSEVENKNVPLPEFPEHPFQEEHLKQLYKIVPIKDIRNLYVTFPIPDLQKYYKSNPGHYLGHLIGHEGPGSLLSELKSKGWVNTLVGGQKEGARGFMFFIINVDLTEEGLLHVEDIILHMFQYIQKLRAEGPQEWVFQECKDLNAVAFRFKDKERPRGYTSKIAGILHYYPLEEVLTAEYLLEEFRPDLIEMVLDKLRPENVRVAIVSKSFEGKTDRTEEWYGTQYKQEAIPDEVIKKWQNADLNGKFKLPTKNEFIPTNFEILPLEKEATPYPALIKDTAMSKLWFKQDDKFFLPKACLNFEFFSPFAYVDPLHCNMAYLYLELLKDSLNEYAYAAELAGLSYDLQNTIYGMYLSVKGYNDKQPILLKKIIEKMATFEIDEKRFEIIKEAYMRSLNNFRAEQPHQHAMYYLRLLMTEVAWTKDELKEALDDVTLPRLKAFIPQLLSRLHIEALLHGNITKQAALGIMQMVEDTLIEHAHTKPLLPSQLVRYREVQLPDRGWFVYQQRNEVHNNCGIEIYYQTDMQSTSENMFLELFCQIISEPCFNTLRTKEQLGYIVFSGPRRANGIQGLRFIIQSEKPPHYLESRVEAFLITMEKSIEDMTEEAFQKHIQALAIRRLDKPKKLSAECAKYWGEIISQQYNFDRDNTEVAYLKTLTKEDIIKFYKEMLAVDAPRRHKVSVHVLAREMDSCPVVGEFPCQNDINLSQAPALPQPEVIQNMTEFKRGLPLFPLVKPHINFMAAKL

Candida albicans [2] = assay: fluconazole-resistant Candida strain growth inhibitors – CaCi-8 strain, dry powder, set 4, dose response (AID 488950); assay type: functional, organism-based
Candida albicans [3] = assay: Candida growth reduction in fluconazole presence – CaCi-2 strain, Alamar Blue, dry powder, set 2, antifungal resistance reversal project, dose response (AID 488930); assay type: functional, organism-based
Candida albicans [4] = assay: C. albicans growth inhibition with fluconazole – CaCi-2 strain, Alamar Blue, dry powder, set 4, dose response (AID 488943); assay type: functional, organism-based
Candida albicans [5] = assay: resistant Candida growth with fluconazole co-treatment – CaCi-8 strain, Alamar Blue, dry powder, set 2, dose response (AID 488909); assay type: functional, organism-based
[6] = molecular target: T2, Luciferin 4-monooxygenase (Photinus pyralis, UniProt P08659); assay: Counter Screen for Luciferase-based Assay Positives. [Related pubchem assays: 620, 618, 411 ]
T2 sequence (P08659 whole entry): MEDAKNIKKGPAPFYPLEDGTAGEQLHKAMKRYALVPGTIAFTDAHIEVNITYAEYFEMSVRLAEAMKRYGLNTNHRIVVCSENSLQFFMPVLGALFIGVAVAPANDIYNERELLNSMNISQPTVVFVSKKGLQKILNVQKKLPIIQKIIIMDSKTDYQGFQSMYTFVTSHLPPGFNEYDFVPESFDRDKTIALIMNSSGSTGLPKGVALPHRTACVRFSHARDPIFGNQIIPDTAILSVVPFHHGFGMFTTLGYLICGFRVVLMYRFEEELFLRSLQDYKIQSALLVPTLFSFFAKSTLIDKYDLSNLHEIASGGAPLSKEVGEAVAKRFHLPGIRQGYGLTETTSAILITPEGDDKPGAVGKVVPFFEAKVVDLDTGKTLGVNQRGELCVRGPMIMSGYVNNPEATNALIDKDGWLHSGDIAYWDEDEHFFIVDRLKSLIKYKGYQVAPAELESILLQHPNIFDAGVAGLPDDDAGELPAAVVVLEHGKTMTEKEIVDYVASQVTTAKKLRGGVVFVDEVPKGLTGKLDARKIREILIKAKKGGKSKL

cells [7] = assay type: functional, cell-based
[8] = HPDE-C7 pancreatic duct cell viability loss – fluorescence, HTS (AID 430); assay type: functional, cell-based; conditions: Homo sapiens
[9] = molecular target: T2, Luciferin 4-monooxygenase; assay: inhibition of purified Photinus pyralis luciferase – biochemical, luminescence, dose response (AID 1891)
[10] = Luminescence Cell-Based Dose Confirmation HTS to Identify Inhibitors of Platelet Dense Granule Release. [Related pubchem assays: 1663 (Primary HTS), 1678 (Summary of Project)]; assay type: functional
[11] = viability loss of HPDE-C7K cells – cell-based, fluorescence, HTS, primary screen (AID 431); assay type: functional; conditions: Homo sapiens
cells [12] = assay type: functional, cell-based; remark: listed apart in the source
HT-1080 = assay: HT1080 cell viability loss – fluorescence readout (AID 620); assay type: functional, cell-based; conditions: Homo sapiens
[13] = molecular target: T3, Sphingosine 1-phosphate receptor 4 (Homo sapiens, UniProt O95977); assay: Late stage fluorescence dose response cell-based screening assay for antagonists of the Sphingosine 1-Phosphate Receptor 4 (S1P4). [Related pubchem assays: 1524 (Confirmation screen (S1P4 antagonists).), 1510 (Primary screen (S1P4 antagonists).), 1853 (Summary AID (S1P4 antagonists).), 1692 (Dose response screen (S1P4 antagonists).)]; assay type: functional
T3 sequence (O95977 whole entry): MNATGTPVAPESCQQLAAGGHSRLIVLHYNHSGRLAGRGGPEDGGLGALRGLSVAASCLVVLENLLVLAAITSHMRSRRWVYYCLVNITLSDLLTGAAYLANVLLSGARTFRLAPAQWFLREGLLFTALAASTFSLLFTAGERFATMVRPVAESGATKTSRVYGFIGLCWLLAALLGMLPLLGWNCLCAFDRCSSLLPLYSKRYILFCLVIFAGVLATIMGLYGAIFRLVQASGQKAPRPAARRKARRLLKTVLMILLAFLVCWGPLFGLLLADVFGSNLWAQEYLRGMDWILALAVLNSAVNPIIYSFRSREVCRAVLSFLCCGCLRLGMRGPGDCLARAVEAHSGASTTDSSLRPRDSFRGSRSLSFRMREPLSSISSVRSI

[14] = molecular target: T3, Sphingosine 1-phosphate receptor 4; assay: Fluorescence dose response cell-based high throughput screening assay for antagonists of the Sphingosine 1-Phosphate Receptor 4 (S1P4). [Related pubchem assays: 1524 (Confirmation in triplicates.), 1510 (Primary screen.)]; assay type: functional
[15] = molecular target: Sphingosine 1-phosphate receptor 1 (Homo sapiens, UniProt P21453); assay type: functional;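 also: Tango beta-arrestin reporter U2OS cells stimulated with S1P near its EC80; inhibitor potency meaning antagonism of receptor activation by the natural agonist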
Chain of Sphingosine 1-phosphate receptor 1 (P21453 whole entry): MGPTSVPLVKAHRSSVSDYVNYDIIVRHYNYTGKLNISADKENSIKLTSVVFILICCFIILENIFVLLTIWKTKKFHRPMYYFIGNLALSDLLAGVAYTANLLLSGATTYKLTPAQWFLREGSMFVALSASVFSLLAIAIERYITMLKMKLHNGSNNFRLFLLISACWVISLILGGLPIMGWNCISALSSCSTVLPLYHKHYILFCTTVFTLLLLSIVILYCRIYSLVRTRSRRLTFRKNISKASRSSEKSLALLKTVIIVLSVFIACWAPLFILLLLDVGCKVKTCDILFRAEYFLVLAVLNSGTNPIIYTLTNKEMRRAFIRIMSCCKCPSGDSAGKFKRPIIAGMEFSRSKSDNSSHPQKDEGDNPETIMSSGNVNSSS

[16] = THP-1 cell cytotoxicity, dose response, cytotoxicity control for non-replicating M. tuberculosis project (AID 489025); assay type: functional
[17] = HepG2 cell cytotoxicity, dose response, cytotoxicity control for non-replicating M. tuberculosis project (AID 489018); assay type: functional; conditions: Mycobacterium tuberculosis
cells [18] = assay type: functional
CHO = CHO cell viability loss, potency – luminescence, cytotoxicity control for TLR9-MyD88 binding inhibitor project, dose response (AID 588339); assay type: functional, cell-based, hamster; conditions: Cricetulus griseus;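 also: CHO cells stably coexpressing TLR9 and MyD88 fusions from primary screen; compound exposure lasted 48 hours before viability readout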
[19] = molecular target: T4, Replicative DNA helicase DnaB (Mycobacterium tuberculosis, UniProt P9WMR3); assay: DnaB intein splicing inhibitors, dose response, biochemical, cell-free fluorescence (AID 449749); assay type: functional
T4 sequence (P9WMR3 whole entry): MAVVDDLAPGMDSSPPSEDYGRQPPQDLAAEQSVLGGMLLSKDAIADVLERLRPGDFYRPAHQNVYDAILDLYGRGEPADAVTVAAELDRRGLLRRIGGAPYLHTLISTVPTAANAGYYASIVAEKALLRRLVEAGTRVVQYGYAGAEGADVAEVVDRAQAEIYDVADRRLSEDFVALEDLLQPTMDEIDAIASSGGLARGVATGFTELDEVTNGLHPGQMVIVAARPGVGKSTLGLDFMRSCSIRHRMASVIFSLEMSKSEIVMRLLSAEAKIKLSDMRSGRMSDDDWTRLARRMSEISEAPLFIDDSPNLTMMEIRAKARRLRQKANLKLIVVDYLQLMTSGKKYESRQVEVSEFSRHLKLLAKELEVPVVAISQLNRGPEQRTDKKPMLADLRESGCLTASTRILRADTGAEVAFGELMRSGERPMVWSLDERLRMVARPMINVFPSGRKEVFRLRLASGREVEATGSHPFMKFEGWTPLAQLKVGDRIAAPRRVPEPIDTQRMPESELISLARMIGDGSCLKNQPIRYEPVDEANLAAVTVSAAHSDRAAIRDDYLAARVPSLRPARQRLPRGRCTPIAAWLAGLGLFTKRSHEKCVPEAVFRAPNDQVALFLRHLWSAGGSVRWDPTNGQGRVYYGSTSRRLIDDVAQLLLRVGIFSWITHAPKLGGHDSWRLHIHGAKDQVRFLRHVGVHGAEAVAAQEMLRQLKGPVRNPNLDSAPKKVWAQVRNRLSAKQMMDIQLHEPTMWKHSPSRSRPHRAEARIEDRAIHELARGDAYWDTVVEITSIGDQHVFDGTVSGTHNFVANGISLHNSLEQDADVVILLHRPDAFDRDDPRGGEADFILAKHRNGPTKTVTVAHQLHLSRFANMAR

Protein RecA = molecular target: T5, Protein RecA (Mycobacterium tuberculosis, UniProt P9WHJ3); assay: Fluorescence Cell-Free Homogeneous Dose Retest to Identify Inhibitors of RecA-Intein Splicing Activity. [Related pubchem assays (depositor defined):AID2097, AID2223, AID489010, AID492950]; assay type: functional
T5 sequence (P9WHJ3 whole entry): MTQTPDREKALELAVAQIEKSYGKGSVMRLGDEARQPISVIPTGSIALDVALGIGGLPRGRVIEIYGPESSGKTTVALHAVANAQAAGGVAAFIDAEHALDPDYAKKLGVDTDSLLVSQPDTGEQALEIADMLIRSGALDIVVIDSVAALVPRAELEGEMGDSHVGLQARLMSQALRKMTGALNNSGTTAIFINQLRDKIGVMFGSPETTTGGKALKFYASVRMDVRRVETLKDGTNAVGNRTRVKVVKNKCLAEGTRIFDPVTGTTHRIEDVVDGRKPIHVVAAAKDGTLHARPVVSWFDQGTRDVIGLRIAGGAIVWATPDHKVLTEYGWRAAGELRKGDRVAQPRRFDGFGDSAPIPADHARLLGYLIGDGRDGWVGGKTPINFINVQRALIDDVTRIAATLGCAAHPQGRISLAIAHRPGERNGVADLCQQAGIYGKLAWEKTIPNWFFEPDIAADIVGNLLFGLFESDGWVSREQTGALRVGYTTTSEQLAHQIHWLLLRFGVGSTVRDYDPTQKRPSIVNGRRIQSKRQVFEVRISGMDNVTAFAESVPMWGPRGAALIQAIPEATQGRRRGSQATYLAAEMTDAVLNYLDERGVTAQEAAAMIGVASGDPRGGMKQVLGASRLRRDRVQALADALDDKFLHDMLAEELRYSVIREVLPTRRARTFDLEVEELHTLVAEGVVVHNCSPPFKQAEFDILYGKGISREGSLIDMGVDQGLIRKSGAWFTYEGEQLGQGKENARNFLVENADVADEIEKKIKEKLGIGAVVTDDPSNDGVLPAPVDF

Beta Lactamase = Beta Lactamase (Pseudomonas aeruginosa, UniProt Q932Y6); assay: BLA reporter interference, concentration series – BLA reporter cells, FRET fluorescence, artefact control for TLR9-MyD88 binding inhibitor project, dose response (AID 588341); assay type: cell-based;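 also: cell based assay in CHO-K1 cells stably expressing beta-lactamase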
Chain of Beta Lactamase (Q932Y6 whole entry): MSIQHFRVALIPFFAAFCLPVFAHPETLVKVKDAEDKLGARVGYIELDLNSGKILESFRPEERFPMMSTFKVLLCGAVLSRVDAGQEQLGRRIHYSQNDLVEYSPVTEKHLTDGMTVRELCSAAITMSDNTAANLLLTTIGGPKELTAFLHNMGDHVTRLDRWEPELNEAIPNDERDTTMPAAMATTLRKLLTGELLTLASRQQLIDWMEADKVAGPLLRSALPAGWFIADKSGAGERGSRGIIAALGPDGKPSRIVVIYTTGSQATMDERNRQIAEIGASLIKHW

[20] = molecular target: T6, Beta-2 adrenergic receptor (Homo sapiens, UniProt P07550); assay: ADRB2 activation measured by internalization – cell-based, FAP fluorogen, flow cytometry, cherry pick 1, dose response (AID 588763); assay type: functional
T6 sequence (P07550 whole entry): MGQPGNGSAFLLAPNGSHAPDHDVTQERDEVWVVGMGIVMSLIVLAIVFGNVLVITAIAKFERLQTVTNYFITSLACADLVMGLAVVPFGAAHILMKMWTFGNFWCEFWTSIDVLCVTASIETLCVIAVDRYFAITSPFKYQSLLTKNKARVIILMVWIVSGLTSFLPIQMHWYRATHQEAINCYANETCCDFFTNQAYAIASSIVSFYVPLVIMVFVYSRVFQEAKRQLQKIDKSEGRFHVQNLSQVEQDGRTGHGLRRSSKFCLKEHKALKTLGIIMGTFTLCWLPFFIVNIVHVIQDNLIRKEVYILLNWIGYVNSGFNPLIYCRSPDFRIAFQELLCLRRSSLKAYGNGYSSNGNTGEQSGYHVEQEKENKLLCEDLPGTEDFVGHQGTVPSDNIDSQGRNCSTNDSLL

[21] = molecular target: T6, Beta-2 adrenergic receptor; assay: Dose response for HTS for Beta-2AR agonists via FAP method from Powderset2.; assay type: functional
INS1 [22] = assay: beta-cell survival under cytokine stress – INS-1E, ATP luminescence, dry powder, dose response (AID 488844); assay type: functional, cell-based; conditions: Rattus norvegicus
INS1 [23] = assay: INS-1E mitochondrial potential loss inhibitors – cell-based, JC-1 fluorescence, dry powder, set 2, dose response (AID 488867); assay type: functional; conditions: Rattus norvegicus
INS1 [24] = assay: INS-1E mitochondrial potential rescue under cytokines – cell-based, JC-1 fluorescence ratio, dry powder, dose response (AID 488931); assay type: functional; conditions: Rattus norvegicus

Q: Which IC50 [1] does the source give for O=C(C1CCC1)N1CCN(c2ccnc3cc(Cl)ccc23)CC1 here?
A: 22.1 µM (not active)

Q: What about the IC50 (Insulin-degrading enzyme) of the same compound?
A: 31.6 µM (not active)

Q: And the AC50 (Candida albicans [2])?
A: 5 µM (active)

Q: And the AC50 (Candida albicans [3])?
A: 1.5 µM (active)

Q: What about the AC50 (Candida albicans [4]) of the same compound?
A: 16.9 µM (active)

Q: And the AC50 (Candida albicans [5])?
A: 0.58 µM (active)

Q: Which EC50 [6] does the source give for CCOC(=O)CCS(=O)(=O)c1nc(-c2ccccc2)cc(C(F)(F)F)n1 here?
A: < 0.2 µM (active)

Q: What about the EC50 (cells [7]) of the same compound?
A: > 350 µM (not active)

Q: And the EC50 [8]?
A: 4.94 µM (active)

Q: And the EC50 [9]?
A: > 112 µM (not active)

Q: What about the EC50 [10] of the same compound?
A: 14.1 µM (active)

Q: What about the EC50 [11] of the same compound?
A: 4.4 µM (active)

Q: And the EC50 (cells [12])?
A: 43.4 µM (active)

Q: And the EC50 (HT-1080)?
A: 14 µM (active)

Q: And the IC50 [13]?
A: 3.58 µM (not active)

Q: And the IC50 [14]?
A: 0.843 µM (active)

Q: What about the IC50 [15] of the same compound?
A: 15.5 µM (not active)

Q: What about the CC50 [16] of the same compound?
A: 19.9 µM (active)

Q: What about the CC50 [17] of the same compound?
A: 16.2 µM (active)

Q: What about the IC50 (cells [18]) of the same compound?
A: 2.7 µM (active)

Q: And the IC50 (CHO)?
A: 3.49 µM (active)

Q: What about the AC50 [19] of the same compound?
A: 4.45 µM (active)

Q: What about the EC50 (Protein RecA) of the same compound?
A: 3.23 µM (active)

Q: And the IC50 (Beta Lactamase)?
A: 28.2 µM (inactive)

Q: For CCOC(=O)c1ccc(NC(=O)Cn2nnc(-c3ccccc3)n2)cc1, which EC50 [20] is on record?
A: 1.18 µM (active)

Q: And the EC50 [21]?
A: 1.31 µM (active)

Q: With C[C@@H]1CN([C@H](C)CO)C(=O)c2cccc(NC(=O)Nc3ccc(F)cc3)c2O[C@H]1CN(C)S(=O)(=O)c1ccc(Cl)cc1 as the compound, how does the AC50 (INS1 [22]) read?
A: 48 µM (active)

Q: And the AC50 (INS1 [23])?
A: 227 µM (active)

Q: And the AC50 (INS1 [24])?
A: 62.1 µM (active)
